Measured values: patent US4957926A, “Method of treating herpesviruses” (priority 1988, dated 1990)
“Also recorded” adds a separate entry of the source. Read-outs that look alike come from different tables or passages of the source.

Key:
HEF cells (strain MRC-5) = test: HEF cell growth / monolayer appearance in HSV type II plaque reduction assay; format: cell-based, human; conditions: all concentrations (0.56-4.5 mM)
Protocol: (§1) For plaque reduction assays, 24-well culture trays were seeded with HEF cells. Confluent monolayers were infected with virus to give initially about 100 plaque-forming-units (p.f.u.) per well. After a one hour absorption period the inocula were replaced by l.5ml of a maintenance medium incorporating 0.5% low gelling temperature agarose, supplemented with various concentrations of test compound. For tests with CMV, infected monolayers were fixed with 5% formalin in phosphate buffered saline (PBS) at 6-8 days post-infection and stained with 0.3% methylene blue after removal of the overlay; whereas, tests with HSV were conducted in the same manner but with the monolayer fixing at 2 days post infection. The mean plaque number was calculated from a multiple series of counts (e.g., duplicate, triplicate or quadruplicate), converted to a percentage of untreated controls and values plotted against the log10 drug concentration. The 50% effective dose (ED50) was determined from best line fits for the curves.

HSV type I = test: preliminary tests with a HSV type I strain which did not form multinucleated giant cells; format: cell-based; conditions: strain not forming giant cells
Description: The formation of multinucleated giant cells (syncytia), which result from the fusion of T4 cells with each other, is one of the most striking properties of HIV [Walker et al., Proc. Natl. Acad. Sci. USA 84, 8120-8124 (1987); Gruters et al., Nature 330, 74-77 (1987)]. Some, but not all, HSV strains also produce these multinucleated giant cells in vitro cell culture.

[1] = Fleet et al., compound No. 57 vs. No. 16; cited from earlier work
[2] = test system: Cytomegalovirus (Viral Strain Towne); test: Cytomegalovirus Plaque Reduction Assay; format: cell-based
Description: (§2) For testing the N-Bu-DNJ against HSV, the HSV Type II strain HG52 described by Timbury, J. Gen. Virol. 13, 373-376 (1971), and Davis et al., Analyst 110, 605-609 (1985), is useful. For testing against CMV, the prototype CMV ADl69 strain described, for example, by Tyms et al., J. Gen. Virol. 68, 1563-1573 (1987), and in U.S. Pat. No. 4,743,560, is useful. Another useful CMV strain is the Towne strain described by Glazer et al., Ann. Inter. Med. 91, 676-683 (1979).
(§3) Human embryo fibroblast cells (HEF) were grown in Eagles minimal essential medium supplemented with 7% fetal calf serum (FCS), 9 mM sodium bicarbonate and 7 mM HEPES buffer. In maintenance medium the supplements were adjusted to 2% FCS, 13 mM sodium bicarbonate and 14 mM HEPES. CMV, strain Towne, and HSV type II, strain […], were used in the following tests. CMV virus stocks were prepared and stored by technique as previously described by Tyms & Williamson, Nature 297, 690-691 […]. Herpes virus stocks were prepared and stored by technique as previously described by Davis et al., Analyst 110, 605-609 (1985). The HEF were human embryonic lung fibroblasts, strain MRC-5, as described by Tyms and Williamson, Nature 297, 690-691 (1982).
as §1
In a similar manner, the Effective Dosage Values (ED50) were determined from the curves of FIG. 1. A least squares fit of the data of FIG. 1 to an equation of the form: y=mx+b gave the following values: […]
From these values, a 50% effective dose (ED50) was calculated to give the following values: […]

[3] = test system: Cytomegalovirus (Viral Strain Towne); test: Yield Reduction Assay against infections with CMV (Towne strain); format: cell-based; conditions: for Plaque Count (infectivity titre): 10^1 dil.; for activity at 500 µM / activity at 2000 µM: read-out: % Virus Control
Protocol: Antiviral activities of N-Bu-DNJ and comparative test compounds against infections with CMV (Towne strain) were also measured by the yield reduction assay as follows:
HEF cells (MRC-5) were infected at high multiplicity of infection (about one p.f.u. per cell) and incubated with various concentrations of the test compounds for 5 and 6 days post infection. The level of infectious virus shed into the extracellular fluid was determined at 5 and 6 days by plaque assays as described above, using serial dilution of extracellular fluid to bring readings on scale.
In Table VI, to calculate plaque-forming units (PFU) of the maintenance medium overlayering HEF cells, the plaque count at the most sensitive dilution (from Table V) was multiplied by dilution value and then by 5 (0.2 ml sample volumes used in test) to give PFU (per ml maintenance medium). (e.g. calculation of drug control: 31×10^3 ×5=1.6×10^5 PFU).

[4] = test system: Herpes Simplex Type II (Viral Strain HG52); test: Herpes Simplex Type II Plaque Reduction Assay; format: cell-based; conditions: for Plaque Count: replicate counts
Description: as §2, §3, §1
The mean plaque numbers determined on HEF cells exposed to varying amount of N-Bu-DNJ, N-Me-DNJ, N-He-DNJ, 2-deoxy-D-glucose and castanospermine were converted to percentage values (plaque count in presence of drug divided by mean value of untreated controls×100), and plotted as a function of drug concentration [drug (mM)].
The 50% effective dose (ED50)--that amount of drug needed to reduce plaque count by 50%--was calculated to give the following values: […]

Which “HEF cell growth (in words)” value (HEF cells (strain MRC-5)) does the source give for `CCCCN1C[C@H](O)[C@@H](O)[C@H](O)[C@H]1CO` [N-Bu-DNJ, Nbutyl deoxynojirimycin] here?
The value was “grew normally”.

What about the “antiviral effect on HSV type I strain (in words)” value (HSV type I) of the same compound?
Its value is “only minor effect”.

And the “cytotoxicity relative to castanospermine (in words)” value [1]?
The value was “substantially less cytotoxic”.

What about the EC50 ([2]; Human betaherpesvirus 5, HEF, CMV, calculated from least squares fit of FIG. 1, read-out: 50% effective dose (ED50)) of the same compound?
The EC50 was 570 µM.

What about the activity at 220 µM ([2]; Human betaherpesvirus 5, HEF, Table IV, 0.22 mM, read-out: % Virus control) of the same compound?
Its activity at 220 µM is 87%.

What about the activity at 450 µM ([2]; Human betaherpesvirus 5, HEF, Table IV, 0.45 mM, read-out: % Virus control) of the same compound?
The activity at 450 µM was 52%.

What about the activity at 900 µM ([2]; Human betaherpesvirus 5, HEF, Table IV, 0.90 mM, read-out: % Virus control) of the same compound?
Its activity at 900 µM is 32%.

What about the activity at 1800 µM ([2]; Human betaherpesvirus 5, HEF, Table IV, 1.8 mM, read-out: % Virus control) of the same compound?
Its activity at 1800 µM is 17%.

And the “Plaque Count Avg” value ([2]; Table IV, 0.22 mM)?
The value was 153.

And the “Plaque Count” value ([2]; Table IV, 0.22 mM, replicate counts)?
Its value is 159,156,144,153.

What about the “Plaque Count Avg” value ([2]; Table IV, 0.45 mM) of the same compound?
The value was 92.

What about the “Plaque Count Avg” value ([2]; Table IV, 0.90 mM) of the same compound?
Its value is 56.

What about the “Plaque Count Avg” value ([2]; Table IV, 1.8 mM) of the same compound?
Its value is 30.

And the “reduction of CMV infection of HEF cells (in words)” value ([2]; compared with castanospermine)?
Its value is “reduces CMV infection of HEF cells at about the same dosage as does castanospermine”.

What about the PFU ([3]; 0.5 mM, 5 days HEF growth) of the same compound?
Its PFU is 8.5 × 10^5 PFU (per ml maintenance medium.

What about the “Plaque Count (infectivity titre)” value ([3]; 0.5 mM, 5 days growth) of the same compound?
The value was ~ 200.

What about the PFU ([3]; 0.5 mM, 6 days HEF growth) of the same compound?
The PFU was 1.3 × 10^4 PFU (per ml maintenance medium.

And the “Plaque Count (infectivity titre)” value ([3]; 0.5 mM, 6 days growth)?
Its value is ~ 200.

What about the PFU ([3]; 2.0 mM, 5 days HEF growth) of the same compound?
Its PFU is 1.4 × 10^3 PFU (per ml maintenance medium.

And the PFU ([3]; 2.0 mM, 6 days HEF growth)?
The PFU was 5.5 × 10^2 PFU (per ml maintenance medium.

And the activity at 500 µM ([3]; Human betaherpesvirus 5, MRC5, 120 h, 0.5 mM, 5 days HEF growth)?
Its activity at 500 µM is 5.3%.

And the activity at 2000 µM ([3]; Human betaherpesvirus 5, MRC5, 120 h, 2.0 mM, 5 days HEF growth)?
Its activity at 2000 µM is 0.88%.

What about the activity at 500 µM ([3]; Human betaherpesvirus 5, MRC5, 144 h, 0.5 mM, 6 days HEF growth) of the same compound?
Its activity at 500 µM is 3.5%.

And the activity at 2000 µM ([3]; Human betaherpesvirus 5, MRC5, 144 h, 2.0 mM, 6 days HEF growth)?
Its activity at 2000 µM is 0.15%.

And the “antiviral activity against HSV type II (in words)” value [4]?
The value was “substantially reduce herpesvirus type II infection of HEF cells; also recorded: strong antiviral activity”.

What about the EC50 ([4]; HEF, HSV type II, amount of drug needed to reduce plaque count by 50%, read-out: 50% effective dose (ED50)) of the same compound?
The EC50 was 1200 µM.

And the activity at 220 µM ([4]; HEF, Table I, 0.22 mM, read-out: % Virus Control)?
Its activity at 220 µM is 85%.

What about the activity at 450 µM ([4]; HEF, Table I, 0.45 mM, read-out: % Virus Control) of the same compound?
The activity at 450 µM was 60%.

What about the activity at 900 µM ([4]; HEF, Table I, 0.9 mM, read-out: % Virus Control) of the same compound?
Its activity at 900 µM is 37%.

And the activity at 1800 µM ([4]; HEF, Table I, 1.8 mM, read-out: % Virus Control)?
The activity at 1800 µM was 40%.

What about the activity at 3600 µM ([4]; HEF, Table I, 3.6 mM, read-out: % Virus Control) of the same compound?
The activity at 3600 µM was 7.7%.

What about the activity at 560 µM ([4]; HEF, Table III, 0.56 mM, read-out: % Virus Control) of the same compound?
Its activity at 560 µM is 56.9%.

What about the activity at 1120 µM ([4]; HEF, Table III, 1.12 mM, read-out: % Virus Control) of the same compound?
Its activity at 1120 µM is 51%.

What about the activity at 2250 µM ([4]; HEF, Table III, 2.25 mM, read-out: % Virus Control) of the same compound?
Its activity at 2250 µM is 27.5%.

And the activity at 4500 µM ([4]; HEF, Table III, 4.5 mM, read-out: % Virus Control)?
The activity at 4500 µM was 17.6%.

And the “Plaque Count Avg” value ([4]; Table I, 0.22 mM)?
The value was 66.

What about the “Plaque Count” value ([4]; Table I, 0.22 mM) of the same compound?
The value was 80,52.

What about the “Plaque Count Avg” value ([4]; Table I, 0.45 mM) of the same compound?
Its value is 47.

What about the “Plaque Count” value ([4]; Table I, 0.45 mM) of the same compound?
The value was 42,53.

What about the “Plaque Count Avg” value ([4]; Table I, 0.9 mM) of the same compound?
The value was 29.

What about the “Plaque Count” value ([4]; Table I, 0.9 mM) of the same compound?
The value was 36,22.

And the “Plaque Count Avg” value ([4]; Table I, 1.8 mM)?
Its value is 31.

And the “Plaque Count” value ([4]; Table I, 1.8 mM)?
The value was 41,20.

What about the “Plaque Count Avg” value ([4]; Table I, 3.6 mM) of the same compound?
The value was 6.

What about the “Plaque Count” value ([4]; Table I, 3.6 mM) of the same compound?
The value was 5,7.

What about the “Plaque Count Avg” value ([4]; Table III, 0.56 mM) of the same compound?
Its value is 29.

What about the “Plaque Count Avg” value ([4]; Table III, 1.12 mM) of the same compound?
Its value is 26.

And the “Plaque Count Avg” value ([4]; Table III, 2.25 mM)?
Its value is 14.

And the “Plaque Count Avg” value ([4]; Table III, 4.5 mM)?
The value was 9.
